The text below walks through data of patent US20030165837A1, “Method for screening DNA binding” (The Scripps Research Institute, priority 2000, published 2003).

Structures are written as SMILES. Where only a bound is given, the exact number is not on record here.

The test system of test [1] is library of 512 hairpin deoxyoligonucleotides containing all possible five bp sequences. The experiment in a line: Fluorescent intercalator displacement (ethidium bromide) assay, 96-well, 512-member hairpin library. The class given is binding. As to conditions: for 3 or 2 bp AT sites, statistical site frequency in the top 50 sequences: FIG. 24; for five bp AT sites found in the top 50 sequences: share of the 16 five bp AT sites; for four bp AT sites found in the top 50 sequences: share of the 32 four bp AT sites; for three bp AT sites found in the top 50 sequences: share of the 80 three bp AT sites. The method, then: Ethidium Bromide Assay. […] Prior to use, each deoxyoligonucleotide was diluted to […] in water and stored at 0° C. for no longer than two days. Each well of a Costar black 96-well plate was loaded with Tris buffer containing ethidium bromide (88 μL of a 0.68×10^−5 solution in buffer (0.1 M Tris, 0.1 M NaCl, pH 8), 0.60×10^−5 M ethidium bromide final concentration). To each well was added one hairpin deoxyoligonucleotide (10 μL, 1.2×10^−5 M in DNA bp final concentration) followed by agent (2 μL of a 0.1 mM solution in water, 2.0×10^−6 M final concentration). […] Fluorescence readings are reported as % fluorescence relative to the control wells. Fluorescence plate readers show a variability of ±10%, but surface effects (i.e bubbles, dust) may contribute to larger variations requiring a second set of measurements.
All other experiments described herein (i.e. compound concentration, overall assay concentration, ethidium bromide:DNA ratio, time variability, etc.) utilized this general procedure in a 96-well plate format.

Another test relates to GC-rich regions. As to conditions: fold weaker; cited from earlier work.
In test [2] the test system is hairpin deoxyoligonucleotides (AATTT, AAAAA, AATAA, ATTAA). The experiment in a line: Ethidium bromide displacement quantitative titration, Scatchard analysis. It is filed as binding. As to conditions: for binding constant for the hairpin containing AAAAA: ethidium bromide displacement titration. The method, then: Determination of Binding Constants. Ethidium Bromide/Thiazole Orange Displacement. A 3 mL quartz cuvette was loaded with Tris buffer (0.1 M Tris, 0.1 M, NaCl, pH 8) and ethidium bromide orthiazole orange (0.44×10^−5 M final concentration). […] The hairpin deoxyoligonucleotide of interest was added (1.1 μM, 8.8 μM in bp final concentration), the fluorescence was measured again and normalized to 100% relative fluorescence. A solution of compound (2 μL, 0.1 mM in DMSO) was added and the fluorescence was measured following 5 min of incubation at 23° C. The addition of 2 μL aliquots was continued until the system reached saturation and the fluorescence remained constant with subsequent compound additions.
(§1) Scatchard Analysis of the Titration Curve. The AF was plotted versus molar equivalents of agent and the ΔFsat was determined mathematically by solving the simultaneous equations representing the pre and post saturation regions of the titration curve. Utilizing equations (1)-(3) (FIG. 11), a Scatchard plot was generated where ΔF/[Free Agent] was plotted versus ΔF. The slope of the region immediately preceding complete saturation of the system provided −K.

In test [3] the test system is 136-membered hairpin library containing all possible four bp sites. The experiment in a line: Thiazole orange displacement 96-well assay, 136-membered hairpin library. As to conditions: 136 hairpins. It is filed as binding. As for the experimental part: A preliminary examination of thiazole orange was conducted to assess the optimal assay concentration range, and to establish its affinity and stoichiometry of binding with representative hairpins (FIG. 10). Thiazole was utilized in both the 96-well format assay and in quantitative titrations for determining binding constants (FIGS. 27 and 28). […] A representative example of the use of thiazole orange in the 96-well format assay is illustrated in FIG. 28 with the assay of netropsin against a 136-membered hairpin library containing all possible four bp sites. […] The mean rank of the ten available 4 bp AT sites was 7.3, whereas the mean positions for the 3 and 2 bp sites were 41.6 and 67.7, respectively. Moreover, the rank order binding across the full ensemble of 4 bp AT sites is consistent with that established in footprinting studies (Portugal, J.; Waring, M. J. Eur. J. Biochem. 1987, 167, 281; Portugal, J.; Waring, M. J. FEBS Lett. 1987, 225, 195; Abu-Daya, A.; et al. Nucleic Acids Res. 1995, 23, 3385; Abu-Daya, A.; Fox, K. R. Nucleic Acids Res. 1997, 25, 4962; Harshman, K. D.; Dervan, P. B. Nucleic Acids Res. 1985, 13, 4825; Van Dyke, M. W.; et al. Proc. Natl. Acad. Sci. USA 1982, 79, 5470; Ward, B.; et al. Biochemistry 1988, 27, 1198; Fish, E. L.; et al. Biochemistry 1988, 27, 6026; Kittler, L.; et al. J. Mol. Recognit. 1999, 12, 121).

The subject of test [4] is hairpin deoxyoligonucleotide. Briefly: Direct fluorescence titration of DAPI, Hoechst 33258, ethidium bromide or thiazole orange. The class given is binding. As to conditions: FIG. 10, second table. The method, then: Direct Fluorescence Titration of DAPI, Hoechst 33258, Ethidium Bromide or Thiazole Orange. A 3 mL quartz cuvette was loaded with Tris buffer (0.1 M Tris, 0.1 M, NaCl, pH 8) and hairpin deoxyoligonucleotide (1.1 μM, 8.8 μM in bp final concentration). A solution of DAPI (excitation 372 nm; emission 454 nm; 2 μL, 0.1 mM in DMSO), Hoechst 33258 (excitation 358 nm; emission 454 nm; 2 μL, 0.1 mM in DMSO), ethidium bromide (excitation 545 nm; emission 595 nm; 2 μL, 0.5 mM in H2O) or thiazole orange (excitation 509 nm; emission 527 nm; 2 μL, 0.5 mM in DMSO) was added and the fluorescence was measured following 5 min of incubation at 23° C. The addition of 2 μL aliquots was continued until the system reached saturation and the fluorescence remained constant with subsequent additions.
as §1

For another test, the system named is polynucleotides. Briefly: Binding constants of ethidium bromide and thiazole orange to polynucleotides (FIG. 10, first table). The source says: FIG. 10 is a table showing the binding constants of ethidium bromide and thiazole orange. […] The variation in the DNA used in the first table is much greater than that used in the second table which explains the greater variation in the ethidium bromide constants.

For the compound `Cl.Cl.N=C(N)c1ccc(-c2cc3ccc(C(=N)N)cc3[nH]2)cc1` [DAPI, 4′,6-Diamidine-2-phenylindole.2HCl], in test [1] (512 hairpins), the “sites containing a GC bp central to a five bp AT-rich site in the top 50 sequences” value (“sites containing a GC bp central” below) is listed as “none”; the “3 or 2 bp AT sites, statistical site frequency in the top 50 sequences” value (“3 or 2 bp AT sites” below) is 14%; the “five bp AT sites found in the top 50 sequences” value (“five bp AT sites found” below) was 100%; the “four bp AT sites found in the top 50 sequences” value (“four bp AT sites found” below) was found to be 72%. Also, in test [1] (512 hairpins), the “three bp AT sites found in the top 50 sequences” value (“three bp AT sites found” below) was 14%. Also, the “% fluorescence decrease” value in test [1] (non AT-rich hairpins (>150-512), 2 μM) is on record as less than 20%. The “binding to GC-rich regions by intercalation relative to AT-rich minor groove binding” value in the test on GC-rich regions is listed as 100-1000 fold. Besides, the “binding constant for the hairpin containing AAAAA” value in test [2] (hairpin containing 5′-AAAAA) turned out to be 5e+07 M⁻¹.
As for `CN1CCN(c2ccc3[nH]c(-c4ccc5[nH]c(-c6ccc(O)cc6)nc5c4)nc3c2)CC1` [Hoechst 33258], the “GAAT among the top 50 sequences” value in test [1] (5 sequences) came to 10%. Also, the “GATT among the top 50 sequences” value in test [1] (7 sequences) was 14%. The “top 50 sequences that contain a three bp AT site flanked by a GC bp” value in test [1] (15 in the top 50) is listed as 30%. Also, the “sequences 21-50 (next 30 after the top 20) that contain a three bp AT site flanked by a GC bp” value in test [1] (15 of the next 30 sequences) is reported as 50%. For the same compound, in test [1] (512 hairpins), the “sites containing a GC bp central” value is “no site containing a GC bp central to a 5 bp AT-rich site is found in the top 50 sequences”; the “3 or 2 bp AT sites” value was found to be 19%; the “five bp AT sites found” value turned out to be 100%; the “four bp AT sites found” value stood at 59%. In test [1] (hairpins >100-150), the fluorescent decrease was less than 20%. In test [2] (fold weaker than direct titration, four hairpins), the “binding constants by ethidium bromide displacement relative to direct titration” value is approximately 2 fold. For the same compound, in test [2] (hairpin containing 5′-AAAAA), the “binding constant for the hairpin containing AAAAA” value turned out to be 7.2e+07 M⁻¹.
Turning to `CC(=O)NCC(=O)O.CC(=O)NCC(=O)O.N=C(N)c1ccc(N=NNc2ccc(C(=N)N)cc2)cc1` [berenil], in test [1] (512 hairpins), the “3 or 2 bp AT sites” value came out at 15%; the “five bp AT sites found” value is 100%; the “four bp AT sites found” value is 66%; the “three bp AT sites found” value worked out at 15%. Also, the “binding constant for the hairpin containing AAAAA” value in test [2] (hairpin containing 5′-AAAAA) was 6.4e+06 M⁻¹.
Consider `Cn1cc(NC(=O)c2cc(NC(=O)c3cc(NC=O)cn3C)cn2C)cc1C(=O)NCCC(=N)N` [distamycin A], for which, in test [1] (512 hairpins), the “3 or 2 bp AT sites” value is recorded as 27%; the “five bp AT sites found” value is given as 88%; the “four bp AT sites found” value is 47%; the “three bp AT sites found” value is listed as 13%. In test [1] (share of the 16 such hairpin sites), the “hairpin sites with a GC bp central to a five bp AT-rich site found in the top 50 sequences” value was 44%. In addition, the “two bp AT sites found in the top 50 sequences” value in test [1] (share of the 176 two bp AT sites, 512 hairpins) was 6%. Besides, the “top 50 sequences that contain a GC bp central to a five bp AT-rich site” value in test [1] (share of the top 50 sequences) is reported as 14%. Also, the “binding constant for the hairpin containing AAAAA” value in test [2] (hairpin containing 5′-AAAAA) came out at 1.7e+07 M⁻¹.
In the case of `Cn1cc(NC(=O)c2cc(NC(=O)CN=C(N)N)cn2C)cc1C(=O)NCCC(=N)N` [netropsin], the “rank (sequence no.) of ATTTA” value in test [1] (1.0 μM netropsin) is recorded as 3. For the same compound, the “rank (sequence no.) of ATTTA” value in test [1] (2.0 μM netropsin) is on record as 1. In test [1] (512 hairpins), the “sites containing a GC bp central” value was “no AT-rich sequence interrupted by a central GC bp appears in the top 50 sequences”; the “3 or 2 bp AT sites” value is on record as 9%; the “five bp AT sites found” value amounted to 100%; the “four bp AT sites found” value amounted to 84%. Besides, the “three bp AT sites found” value in test [1] (512 hairpins) worked out at 9%. In addition, in test [3], the “mean position of the 2 bp AT sites” value is on record as 67.7, the “mean position of the 3 bp AT sites” value is reported as 41.6 and the “mean rank of the ten available 4 bp AT sites” value turned out to be 7.3. In test [2] (hairpin containing 5′-AAAAA), the “ethidium bromide displaced at saturation binding” value is recorded as “essentially all the ethidium bromide” and the “binding constant for the hairpin containing AAAAA” value was 3.47e+08 M⁻¹.
For `CN1C(=Cc2cc[n+](C)c3ccccc23)Sc2ccccc21` [thiazole orange], in test [4], the “difference in binding constants between hairpins” value is reported as 1.3 fold. Besides, the “difference in binding constant between polynucleotides” value with polynucleotides is on record as “no difference”.
